Publication PMC10650464, “Natural Compounds Purified from the Leaves of Aristotelia chilensis: Makomakinol, a New Alkaloid and the Effect of Aristoteline and Hobartine on NaV Channels” (International Journal of Molecular Sciences, 2023)
Like-named read-outs stand apart in the source and are kept apart here.

Key:
nAChR subtype α3β4 = test system: nAChR subtype α3β4; set-up: method as in PMID 31276409; conditions: cited from earlier work
human NaV1.8/β3 = biological target: T1, human NaV1.8/β3 (Homo sapiens, UniProt Q9Y5Y9); assay: Automated whole-cell patch-clamp electrophysiology (QPatch-16), NaV1.8; assay type: cell-based; conditions: for IC50: CHO cells, mean ± SEM; for V1/2 of voltage-dependence of activation of NaV1.8 / V1/2 of voltage-dependence of steady-state fast inactivation of NaV1.8: compound at 50 µM, compared with control before addition, paired t-test
T1 construct: expressed in transfected cells
T1 sequence (Q9Y5Y9 whole entry): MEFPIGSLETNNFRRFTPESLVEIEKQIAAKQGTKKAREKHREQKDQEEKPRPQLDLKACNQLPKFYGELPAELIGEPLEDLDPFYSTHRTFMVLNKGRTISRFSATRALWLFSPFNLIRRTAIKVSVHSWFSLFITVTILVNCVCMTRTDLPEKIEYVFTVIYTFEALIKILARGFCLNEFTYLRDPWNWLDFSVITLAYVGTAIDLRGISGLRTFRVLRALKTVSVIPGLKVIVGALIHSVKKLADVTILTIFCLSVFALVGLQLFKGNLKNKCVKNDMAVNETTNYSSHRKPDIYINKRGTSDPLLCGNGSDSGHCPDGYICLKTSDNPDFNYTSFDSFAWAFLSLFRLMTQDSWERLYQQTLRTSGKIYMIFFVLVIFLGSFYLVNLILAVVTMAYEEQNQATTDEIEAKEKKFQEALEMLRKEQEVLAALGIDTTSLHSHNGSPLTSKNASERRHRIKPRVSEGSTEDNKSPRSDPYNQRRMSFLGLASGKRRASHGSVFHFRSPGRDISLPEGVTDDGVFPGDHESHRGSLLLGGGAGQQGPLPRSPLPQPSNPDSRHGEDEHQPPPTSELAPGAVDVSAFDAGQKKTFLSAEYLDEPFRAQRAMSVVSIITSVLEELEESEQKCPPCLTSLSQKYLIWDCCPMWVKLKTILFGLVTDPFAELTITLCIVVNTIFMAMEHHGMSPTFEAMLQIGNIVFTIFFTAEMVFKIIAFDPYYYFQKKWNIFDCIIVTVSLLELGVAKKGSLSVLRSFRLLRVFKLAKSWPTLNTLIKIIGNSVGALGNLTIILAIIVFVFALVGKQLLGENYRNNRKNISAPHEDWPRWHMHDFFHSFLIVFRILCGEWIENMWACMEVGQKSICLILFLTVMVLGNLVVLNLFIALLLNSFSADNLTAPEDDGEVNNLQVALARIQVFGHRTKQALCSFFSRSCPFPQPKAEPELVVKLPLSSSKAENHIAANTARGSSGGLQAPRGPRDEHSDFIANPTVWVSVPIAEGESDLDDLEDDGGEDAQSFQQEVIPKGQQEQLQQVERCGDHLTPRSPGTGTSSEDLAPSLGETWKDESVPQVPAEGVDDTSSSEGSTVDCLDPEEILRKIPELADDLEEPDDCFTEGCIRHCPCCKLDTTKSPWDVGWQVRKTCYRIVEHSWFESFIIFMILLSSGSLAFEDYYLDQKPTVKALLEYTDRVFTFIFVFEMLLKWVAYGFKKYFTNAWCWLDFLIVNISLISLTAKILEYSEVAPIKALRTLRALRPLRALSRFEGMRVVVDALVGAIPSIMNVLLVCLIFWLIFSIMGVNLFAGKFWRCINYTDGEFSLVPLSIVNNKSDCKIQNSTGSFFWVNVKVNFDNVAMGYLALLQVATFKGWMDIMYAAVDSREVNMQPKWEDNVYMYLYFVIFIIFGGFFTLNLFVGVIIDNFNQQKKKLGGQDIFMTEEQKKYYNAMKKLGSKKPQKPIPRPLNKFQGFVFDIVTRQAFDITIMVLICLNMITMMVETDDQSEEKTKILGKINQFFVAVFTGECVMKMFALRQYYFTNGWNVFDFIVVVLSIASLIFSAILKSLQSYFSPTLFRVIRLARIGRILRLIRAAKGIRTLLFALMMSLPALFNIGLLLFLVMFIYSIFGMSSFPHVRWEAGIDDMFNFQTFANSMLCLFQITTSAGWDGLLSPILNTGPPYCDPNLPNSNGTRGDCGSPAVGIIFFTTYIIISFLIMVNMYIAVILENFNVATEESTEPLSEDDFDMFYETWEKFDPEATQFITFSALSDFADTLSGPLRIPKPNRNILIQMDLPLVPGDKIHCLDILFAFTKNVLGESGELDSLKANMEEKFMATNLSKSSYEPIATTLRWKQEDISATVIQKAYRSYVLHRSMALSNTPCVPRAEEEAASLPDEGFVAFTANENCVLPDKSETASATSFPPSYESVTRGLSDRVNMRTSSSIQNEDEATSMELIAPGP
T1 sequence (Q9NY72 25-215 partner limits assumed): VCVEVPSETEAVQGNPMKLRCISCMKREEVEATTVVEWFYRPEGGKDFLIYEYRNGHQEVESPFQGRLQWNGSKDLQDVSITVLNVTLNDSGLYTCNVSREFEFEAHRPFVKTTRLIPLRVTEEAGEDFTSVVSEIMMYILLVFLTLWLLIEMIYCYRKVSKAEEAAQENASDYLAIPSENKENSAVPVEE
Procedure: (§1) Human embryonic kidney (HEK) 293 cells stably expressing human NaV1.7/β1 (SB Drug Discovery, Glasgow, UK) or Chinese hamster ovary (CHO) cells stably expressing human NaV1.8/β3 in a tetracycline-inducible system were cultured in a minimum essential media (MEM) supplemented with 10% fetal bovine serum (FBS), 2 mM l-glutamine, and selection antibiotics as recommended by the manufacturer. To induce hNaV1.8 expression, tetracycline (1 μg/mL) was added to the culture media 72 h prior to the functional assays. The cells were passaged every 3–4 days after reaching a 70–80% confluence using TrypLE Express (Thermo Fisher Scientific, Scoresby, VIC, Australia) and grown in an incubator at 37 °C with 5% CO2. Prior to the electrophysiology experiments, the cells were dissociated with TrypLE Express and resuspended in Dulbecco’s Modified Eagle Medium (DMEM) with 25 mM HEPES, 100 U/mL penicillin-streptomycin, and 0.04 mg/mL of a trypsin inhibitor from Glycine max (soybean), then stirred for 30 min.
Whole-cell patch-clamp experiments were performed on a QPatch-16 automated electrophysiology platform (Sophion Bioscience, Ballerup, Denmark) using single hole (QPlate 16 with a standard resistance of 2 ± 0.4 MΩ for NaV1.7) or multi-hole (QPlate 16× with a standard resistance 0.2 ± 0.04 MΩ for NaV1.8). Whole-cell currents were filtered at 8 kHz and acquired at 25 kHz and the linear leak was corrected using P/4 subtraction (leak potential −90 mV, leak sweep amplitude 10%).
The extracellular solution contained in mM included NaCl 140 (NaCl 70/Choline Chloride 70 for NaV1.7), KCl 4, CaCl2 2, MgCl2 1, HEPES 10, and glucose 10; pH 7.4; osmolarity 305 mOsm. TTX (1 μM) was added to the extracellular solution for the NaV1.8 recordings to inhibit endogenous TTX-sensitive NaV currents in CHO cells. The intracellular solution contained in mM included CsF 140, EGTA/CsOH 1/5, HEPES 10, and NaCl 10; pH 7.3 with CsOH; osmolarity 320 mOsm. Compounds were made up to a 100 mM stock in DMSO and diluted in an extracellular solution at the concentrations stated. Concentration–response curves at the resting state were acquired using a holding potential of −90 mV and a 50 ms test pulse to −20 mV (for NaV1.7) or +10 mV (for NaV1.8) every 20 s (0.05 Hz). Concentration–response curves at the inactivated state were acquired using a holding potential of −90 mV, an 8 s conditioning pulse to −40 mV, a 20 ms recovery pulse to −90 mV, and a 50 ms test pulse to +10 mV every 20 s (0.05 Hz). Peak current was normalized to the buffer control after 2 min incubations of increasing concentrations of the compound (1–100 μM). I–V curves were obtained with a holding potential of −90 mV and a series of 500 ms step pulses that ranged from −80 to +90 mV in 5 mV increments, followed by a 20 ms test pulse to +10 mV to assess the voltage-dependence of the steady-state fast inactivation (repetition interval 5 s). Peak currents were normalized to the buffer control before and after the 5 min incubation of the compound (50 μM).
The data were plotted and analyzed via GraphPad Prism, version 9.5.1. Statistical significance was defined as p < 0.05 and was determined via the paired t-test. Concentration–response curves were fitted with a four-parameter Hill equation with the variable Hill coefficient. Conductance–voltage curves were generated by calculating the conductance (G) at each voltage (V) using the equation G = I/(V − Vrev), where Vrev is the reversal potential. Conductance–voltage and steady-state fast inactivation relationships were fitted using a Boltzmann equation. The data are expressed as the mean ± standard error of the mean (SEM).

[1] = test system: rodent vascular smooth muscle; set-up: method as in PMID 31362388; conditions: rodent vascular smooth muscle ex vivo; via activation of potassium channels and inhibition of CaV1.2; read-out: IC50, vasodilation; cited from earlier work
human NaV1.7/β1 = human NaV1.7/β1 (Homo sapiens, UniProt Q15858); assay: Automated whole-cell patch-clamp electrophysiology (QPatch-16), NaV1.7; assay type: cell-based; conditions: 50 ms voltage step to −20 mV from −90 mV holding potential; HEK293 cells; mean ± SEM; read-out: IC50, inhibition of NaV1.7 peak current
Sequence of human NaV1.7/β1 (Q15858 whole entry): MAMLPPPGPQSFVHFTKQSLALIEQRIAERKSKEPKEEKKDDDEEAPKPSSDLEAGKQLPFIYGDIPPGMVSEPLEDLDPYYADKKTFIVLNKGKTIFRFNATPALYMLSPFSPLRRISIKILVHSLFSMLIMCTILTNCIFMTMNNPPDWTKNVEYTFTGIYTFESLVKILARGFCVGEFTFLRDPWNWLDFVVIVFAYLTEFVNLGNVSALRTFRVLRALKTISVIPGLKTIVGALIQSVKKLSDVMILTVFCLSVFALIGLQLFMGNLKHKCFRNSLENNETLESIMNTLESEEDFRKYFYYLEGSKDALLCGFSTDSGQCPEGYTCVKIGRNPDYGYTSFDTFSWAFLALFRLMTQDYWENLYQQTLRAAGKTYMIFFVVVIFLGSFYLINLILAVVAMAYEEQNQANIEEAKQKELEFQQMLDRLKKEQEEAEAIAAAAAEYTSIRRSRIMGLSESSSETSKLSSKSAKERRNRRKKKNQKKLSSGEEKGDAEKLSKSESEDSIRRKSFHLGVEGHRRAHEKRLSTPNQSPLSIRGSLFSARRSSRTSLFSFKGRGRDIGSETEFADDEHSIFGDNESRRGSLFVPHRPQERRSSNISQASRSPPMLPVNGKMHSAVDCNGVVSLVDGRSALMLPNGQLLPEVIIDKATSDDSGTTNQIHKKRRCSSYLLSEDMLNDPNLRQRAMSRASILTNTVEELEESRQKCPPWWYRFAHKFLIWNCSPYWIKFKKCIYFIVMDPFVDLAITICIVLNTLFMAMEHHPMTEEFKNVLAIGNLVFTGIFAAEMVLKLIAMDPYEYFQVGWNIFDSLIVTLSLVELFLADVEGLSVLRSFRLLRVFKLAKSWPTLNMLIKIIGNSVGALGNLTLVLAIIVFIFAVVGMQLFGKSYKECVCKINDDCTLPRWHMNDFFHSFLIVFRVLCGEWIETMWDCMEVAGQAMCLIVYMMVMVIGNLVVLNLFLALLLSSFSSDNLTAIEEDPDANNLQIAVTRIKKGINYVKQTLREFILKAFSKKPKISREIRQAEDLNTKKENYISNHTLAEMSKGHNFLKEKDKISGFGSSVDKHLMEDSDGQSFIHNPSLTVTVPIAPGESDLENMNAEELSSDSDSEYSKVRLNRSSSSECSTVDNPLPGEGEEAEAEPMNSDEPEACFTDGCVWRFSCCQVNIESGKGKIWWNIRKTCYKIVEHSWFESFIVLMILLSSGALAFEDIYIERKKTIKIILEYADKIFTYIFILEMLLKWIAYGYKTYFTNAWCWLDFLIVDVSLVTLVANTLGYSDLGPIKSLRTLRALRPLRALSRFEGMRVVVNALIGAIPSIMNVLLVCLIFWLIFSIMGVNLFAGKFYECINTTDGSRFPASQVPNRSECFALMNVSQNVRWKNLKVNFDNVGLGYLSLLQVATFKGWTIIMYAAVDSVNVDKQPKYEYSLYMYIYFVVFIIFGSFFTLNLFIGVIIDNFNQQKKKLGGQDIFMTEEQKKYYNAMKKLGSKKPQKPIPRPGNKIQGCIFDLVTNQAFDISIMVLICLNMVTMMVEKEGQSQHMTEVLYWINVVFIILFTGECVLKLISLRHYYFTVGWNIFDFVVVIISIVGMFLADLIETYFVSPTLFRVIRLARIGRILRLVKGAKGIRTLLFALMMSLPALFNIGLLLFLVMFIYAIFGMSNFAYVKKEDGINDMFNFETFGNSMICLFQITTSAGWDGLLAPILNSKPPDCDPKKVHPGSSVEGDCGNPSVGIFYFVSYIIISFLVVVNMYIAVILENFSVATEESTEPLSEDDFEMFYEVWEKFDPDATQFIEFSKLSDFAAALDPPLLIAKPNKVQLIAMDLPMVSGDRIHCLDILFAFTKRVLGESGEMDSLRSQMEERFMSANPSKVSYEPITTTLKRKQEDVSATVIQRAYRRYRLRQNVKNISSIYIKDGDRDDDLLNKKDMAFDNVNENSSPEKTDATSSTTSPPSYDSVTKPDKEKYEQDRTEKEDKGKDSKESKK
Sequence of human NaV1.7/β1 (Q07699 19-218 partner): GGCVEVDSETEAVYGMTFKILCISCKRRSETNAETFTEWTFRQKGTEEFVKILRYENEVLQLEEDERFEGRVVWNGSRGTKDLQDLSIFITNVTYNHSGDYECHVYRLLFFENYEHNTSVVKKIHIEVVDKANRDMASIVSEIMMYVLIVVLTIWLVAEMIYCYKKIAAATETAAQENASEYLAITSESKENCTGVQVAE
Procedure: as §1, with “min. […]” for “min.”
The data were plotted and analyzed via GraphPad Prism, version 9.5.1. Statistical significance was defined as p < 0.05 and was determined via the paired t-test. […] The data are expressed as the mean ± standard error of the mean (SEM).

[2] = 8 s conditioning voltage step to −40 mV to inactivate approximately half of the available channels, read-out: IC50, inhibition of NaV1.8 peak current after inactivating conditioning step
[3] = resting state: 50 ms voltage step to 10 mV from −90 mV holding potential, read-out: IC50, inhibition of NaV1.8 peak current

CC1(C)NC2Cc3c([nH]c4ccccc34)C3(C)CCC1CC23 (stereo not shown) [aristoteline]
IC50 (nAChR subtype α3β4): 0.4 µM
IC50 (human NaV1.8/β3; [2]): 30 ± 6 µM
V1/2 of voltage-dependence of activation of NaV1.8 (human NaV1.8/β3): 1.0 ± 0.0 mV
V1/2 of voltage-dependence of steady-state fast inactivation of NaV1.8 (human NaV1.8/β3): −34.9 ± 1.4 mV
IC50 (human NaV1.8/β3; [3]): 68 ± 3 µM
IC50 [1]: 16 µM
IC50 (human NaV1.7/β1): 49 ± 7 µM

CC1=CC[C@H]2C[C@@H]1[C@@H](Cc1c[nH]c3ccccc13)NC2(C)C [hobartine]
Shift of V1/2 of voltage-dependence of activation of NaV1.8 (human NaV1.8/β3; 50 µM, n = 5): −9.0 mV
IC50 (human NaV1.8/β3; [2]): 20 ± 2 µM
V1/2 of voltage-dependence of activation of NaV1.8 (human NaV1.8/β3): −8.6 ± 0.8 mV
V1/2 of voltage-dependence of steady-state fast inactivation of NaV1.8 (human NaV1.8/β3): −41.1 ± 3.8 mV
IC50 (human NaV1.8/β3; [3]): 54 ± 1 µM
IC50 (human NaV1.7/β1): 69 ± 3 µM
